Reference: patent US10188666B2, “Dendrogenin A and antineoplastic agents for the treatment of chemosensitive or chemoresistant tumors” (priority 2013, dated 2019)
Where two headings read alike, the source gives them in different places.

What was measured:
[1] = target: cholesterol epoxide hydrolase (Homo sapiens, UniProt Q15125); conditions: de Medina et al., Nature Communications, 2013; cited from earlier work
KG1a cells = assay: MTT cell viability assay, KG1a cells; type: cell-based; conditions: for sensitivity of KG1a cells compared to KG1 cells (cell viability, in words): single agent
Protocol: (§1) Briefly, effect of drugs alone and in combinations were determined for a 3-5 log scale of concentrations of drugs and with a constant ratio between the two drugs used for co-treatment. Cells were seeded in 96-well plates (50 000 cell/well). Cells were treated just after seeding, for 48 hours. Cell viability was determined with MTT assay. Cells were centrifuged 5 minutes at 1200 rpm, medium removed, 100 μl of MTT solution (1 mg/ml in PBS) added, incubated for 2 hours at 37° C., centrifuged, MTT solution removed and DMSO (100 μl) added to dissolve purple formazan formed by living cells. Absorbance of the solution was determined at 540 nm.
(§2) HL60, KG1, KG1a and MV4-11 cells were seeded in 96-well plates (50 000 cells/well). Cells were treated just after seeding with increasing doses of daunorubicin, for 48 hours. Cell viability was determined with MTT assay as follows: cells were centrifuged 5 minutes at 1200 rpm, medium removed, 100 μl of MTT solution (1 mg/ml in PBS) added, incubated for 2 hours at 37° C., centrifuged, MTT solution removed and DMSO (100 μl) added to dissolve purple formazan formed by living cells. Absorbance of the solution was determined at 540 nm.
(§3) HL60, KG1, KG1a and MV4-11 cells were seeded in 96-well plates (50 000 cells/well). Cells were treated just after seeding with increasing doses of cytarabine, for 48 hours.
(§4) HL60, KG1, KG1a and MV4-11 cells were seeded in 96-well plates (50 000 cells/well).
(§5) HL60, KG1, KG1a and MV4-11 cells were seeded in 96-well plates (50 000 cells/well). Cells were treated just after seeding with increasing doses of cisplatin, for 48 hours.
(§6) HL60, KG1, KG1a and MV4-11 cells were seeded in 96-well plates (50 000 cells/well). Cells were treated just after seeding with increasing doses of Dendrogenin A, for 48 hours.
(§7) KG1a cells were seeded in 96-well plates (50 000 cells/well).
as §7
KG1a cells were seeded in 96-well plates (50 000 cells/well). […]

AML patient cells = assay: Cell death of AML patient samples, Annexin V-FitC/7-AAD flow cytometry; type: cell-based; conditions: Dendrogenin A 5 μM alone, 48 hours
Protocol: In a 6-microwell plate were seeded 0.5.10^6 patient cells. The same day, Solvant vehicle or different concentrations of Dendrogenin A (final concentrations: 5 μM) alone or in combination with Daunorubicin (final concentration: 10 nM) were added into the well. After 48 hours of incubation, the cells suspensions were centrifuged and washed with PBS and cell pellets were resuspended in a labeling solution containing Annexin V-FitC and 7-AAD as described in the kit protocol (Annexin V-FitC/7-AAD staining kit, Roche Applied Science). Cells were then incubated for 15 minutes at room temperature in the dark and analyzed by Facs Flow cytometry.

KG1 cells = assay: MTT cell viability assay, KG1 cells; type: cell-based; conditions: 48 hours
Protocol: as §1, §2, §3, §4, §5, §6
(§8) KG1 cells were seeded in 96-well plates (50 000 cells/well).
as §8, §8
KG1 cells were seeded in 96-well plates (50 000 cells/well). Cells were treated just after seeding with increasing doses of Dendrogenin A and Cisplatin, for 48 hours.
as §8
KG1 cells were seeded in 96-well plates (50 000 cells/well). Cells were treated just after seeding with increasing doses of Dendrogenin A and arsenic trioxide, for 48 hours.
as §8

[2] = system: chemoresistant cancer cell line KG1a; assay: Cell death induction, Trypan blue counting, KG1a cells; type: cell-based; conditions: 48 hours; for cell death induction by the antineoplastic agent alone: KG1a, Daunorubicin 0.5 μM or cytarabine 1 μM
Protocol: In a 6-microwell plate was seeded 0.5·10^6 cells of KG1a cell line. The same day, Solvant vehicule or different concentrations of Dendrogenin A (final concentrations: 5 and 10 μM) alone or in combination with Daunorubicin (final concentration: 0.5 μM) or cytarabine (final concentration: 1 μM) were added into the well. After 48 hours of incubation, the cells suspensions were centrifuged and cell pellets were resuspended in the Trypan blue solution (0.25% (w/v) in PBS) and counted in a Malassez cell under a light microscope.

MV4-11 cells = assay: MTT cell viability assay, MV4-11 cells; type: cell-based; conditions: for sensitivity of MV4-11 cells (cell viability, in words): single agent
Protocol: as §1, §2, §3, §4, §5, §6
(§9) MV4-11 cells were seeded in 96-well plates (50 000 cells/well).
as §9

HL60 cells = assay: MTT cell viability assay, HL60 cells; type: cell-based
Protocol: as §1, §2, §3, §4, §5, §6
(§10) HL60 cells were seeded in 96-well plates (50 000 cells/well).
HL60 cells were seeded in 96-well plates (50 000 cells/well). Cells were treated just after seeding with increasing doses of Dendrogenin A and Cisplatin, for 48 hours.
as §10
HL60 cells were seeded in 96-well plates (50 000 cells/well). Cells were treated just after seeding with increasing doses of Dendrogenin A and arsenic trioxide, for 48 hours.
as §10

[3] = system: drug sensitive cancer cell line KG1; assay: Cytotoxic activity, Trypan blue counting, KG1 cells; conditions: for cytotoxic activity of the antineoplastic agent alone: KG1, Daunorubicin 0.05-0.5 μM or cytarabine 0.1-1 μM, 48 hours
Protocol: In a 6-microwell plate was seeded 0.5.10^6 cells of KG1 cell line. […] Then, Daunorubicin (final concentration: 0.05, 0.1, 0.25 and 0.5 μM) or cytarabine (final concentration: 0.1, 0.2, 0.5 and 1 μM) were added to […]. After the cells were cultured for additional 48 hours, culture suspensions were centrifuged and cell pellets were resuspended in the Trypan blue solution (0.25% (w/v) in PBS) and counted in a Malassez cell under a light microscope.

[4] = Homo sapiens, KG-1a, KG1a cell line, 48 hours, MTT, read-out: IC 50
[5] = Homo sapiens, KG-1, KG1 cell line

Sequence of cholesterol epoxide hydrolase (Q15125 whole entry): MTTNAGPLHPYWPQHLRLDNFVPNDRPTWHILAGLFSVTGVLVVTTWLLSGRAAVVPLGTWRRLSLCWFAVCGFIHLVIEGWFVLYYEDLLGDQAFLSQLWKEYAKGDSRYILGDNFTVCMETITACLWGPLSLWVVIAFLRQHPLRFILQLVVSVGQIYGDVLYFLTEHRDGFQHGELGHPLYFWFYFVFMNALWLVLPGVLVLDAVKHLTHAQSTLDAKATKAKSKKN

| Compound | IC50 (KG1a cells; [4]) | sensitivity of KG1a cells compared to KG1 cells (cell viability, in words) (KG1a cells; 48 hours, MTT) | IC50 (KG1 cells; [5]) | sensitivity of MV4-11 cells (cell viability, in words) (MV4-11 cells; 48 hours, MTT) | sensitivity of HL60 cells (cell viability, in words) (HL60 cells; single agent, 48 hours, MTT) | IC50 (MV4-11 cells; Homo sapiens, MV4-11, 48 h) | IC50 (HL60 cells; Homo sapiens, HL-60, 48 h) | sensitivity of HL60 cells (cell viability, in words) (HL60 cells) | cell death induction by the antineoplastic agent alone [2] | cytotoxic activity of the antineoplastic agent alone [3] | other results |
| --- | --- | --- | --- | --- | --- | --- | --- | --- | --- | --- | --- |
| CC(C)CCC[C@@H](C)[C@H]1CC[C@H]2[C@@H]3C[C@@H](NCCc4cnc[nH]4)[C@@]4(O)C[C@@H](O)CC[C@]4(C)[C@H]3CC[C@]12C [Dendrogenin A, 5α-hydroxy-6β-[2-(1H-imidazol-4-yl)ethylamino]cholestan-3β-ol] | 13.2 µM | as sensitive as KG1 cells | 8.86 µM | as sensitive as KG1 or KG1a cells | as sensitive as KG1 or KG1a cells |  |  |  |  |  | inhibition of cholesterol epoxide hydrolase [1]: selective inhibitor; cell death rate of tumor cells resistant to Daunorubicin (AML patient cells): high or moderate cell death rate; effect on resistance of KG1a cells to Daunorubicin ([2]; Dendrogenin A 5 and 10 μM with Daunorubicin 0.5 μM): able to abolish this resistance; effect on resistance of KG1a cells to Cytarabine ([2]; Dendrogenin A 5 and 10 μM with cytarabine 1 μM): able to abolish this resistance; IC50 (MV4-11 cells; Homo sapiens, MV4-11 cell line, 48 hours, MTT, read-out: IC 50): 7.27 µM; IC50 (HL60 cells; Homo sapiens, HL-60, HL60 cell line, 48 hours, MTT, read-out: IC 50): 8.06 µM; effect on sensibility of KG1 cells to Daunorubicin ([3]; Dendrogenin A 2.5 μM for 24 hours, then Daunorubicin 0.05-0.5 μM for 48 hours): able to increase this sensibility; effect on sensibility of KG1 cells to Cytarabine ([3]; Dendrogenin A 2.5 μM for 24 hours, then cytarabine 0.1-1 μM for 48 hours): able to increase this sensibility |
| O=c1[nH]cc(F)c(=O)[nH]1 [5-Fluorouracil] |  | resistant | 756 µM | more resistant to 5-FU compared to Daunorubicin or Cytarabine | more resistant to 5-FU compared to Daunorubicin or Cytarabine | 2160 µM | 2450 µM |  |  |  | IC50 (KG1a cells; Homo sapiens, KG-1a, 48 h, heading: IC 50, KG1a cell line, 48 hours, MTT, read-out: IC 50): 3.99 µM |
| N.N.[Cl][Pt][Cl] [Cisplatin] |  | resistant |  | more resistant to Cisplatin compared to Daunorubicin or Cytarabine |  |  |  | as sensible to Cisplatin as to Daunorubicin and Cytarabine |  |  | IC50 (KG1a cells; KG1a cell line, 48 hours, MTT, read-out: IC 50): 9.59 µM; IC50 (KG1 cells; KG1 cell line): 3.29 µM; IC50 (MV4-11 cells; MV4-11 cell line, 48 hours, MTT, read-out: IC 50): 7.2 µM; IC50 (HL60 cells; read-out: IC 50): 3.29 µM |
| COc1cccc2c1C(=O)c1c(O)c3c(c(O)c1C2=O)C[C@@](O)(C(C)=O)C[C@@H]3O[C@H]1C[C@H](N)[C@H](O)[C@H](C)O1 [Daunorubicin] |  | resistant | 0.064 µM | as sensitive as KG1 cells |  | 0.067 µM | 0.062 µM | as sensitive as KG1 cells | resistant | sensitive | IC50 (KG1a cells; Homo sapiens, KG-1a, 48 h): 1.08 µM |
| Nc1ccn([C@@H]2O[C@H](CO)[C@@H](O)[C@@H]2O)c(=O)n1 [Cytarabine] | 1.53 µM | resistant | 0.34 µM | more sensitive than KG1 cells | more sensitive than KG1 cells | 0.18 µM | 0.16 µM |  | resistant | sensitive |  |
